Key:
Assay in all cases: relative viability (nuclei count vs DMSO), 5 days (fraction); higher = more cells survive
[1] = system: NCI-H1666
Outline: (§1)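 The day after seeding in 1536-well plates, lung cancer cell lines were treated by pin tool with a single drug, or with a fixed anchor-drug dose together with five library-drug doses (not always all listed) in √10 steps. After 5 days, a combined fix-and-stain solution (final 0.05% Triton X-100, 1% formaldehyde, 1 ug/ml Hoechst) was added. Nuclei counted on 4× images gave relative viability as treated counts over vehicle counts, reported as the median of duplicate plates.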

[2] = system: NCI-H838
Outline: as §1

[3] = system: UMC-11
Outline: as §1

[4] = system: ChaGo-K-1
Outline: as §1

[5] = system: NCI-H650
Outline: as §1

[6] = system: HCC-15
Outline: as §1

[7] = system: LXF-289
Outline: as §1

[8] = system: PC-3 [JPC-3]
Outline: as §1

[9] = system: NCI-H322M
Outline: as §1

[10] = system: NCI-H661
Outline: as §1

[11] = system: NCI-H2087
Outline: as §1

[12] = system: NCI-H2342
Outline: as §1

[13] = system: NCI-H1651
Outline: as §1

[14] = system: LK-2
Outline: as §1

[15] = system: NCI-H596
Outline: as §1

[16] = system: NCI-H1944
Outline: as §1

[17] = system: LU99A
Outline: as §1

[18] = system: BEN
Outline: as §1

[19] = system: NCI-H358
Outline: as §1

[20] = system: LC-2-ad
Outline: as §1

[21] = system: LCLC-97TM1
Outline: as §1

[22] = system: HCC-78
Outline: as §1

[23] = system: SK-MES-1
Outline: as §1

Compound: O=C(O)c1ccc(-c2c[nH]c3ncc(-c4ccccc4)cc23)cc1C1CCCC1 + Cc1nc(Nc2ncc(C(=O)Nc3c(C)cccc3Cl)s2)cc(N2CCN(CCO)CC2)n1 [Dasatinib] (partner 0.075 µM)
- relative viability ([1]; first compound 0.04 µM): 0.858
- relative viability ([1]; first compound 0.1265 µM): 0.928
- relative viability ([1]; first compound 0.4 µM): 0.832
- relative viability ([1]; first compound 1.265 µM): 0.501
- relative viability ([2]; first compound 0.04 µM): 0.273
- relative viability ([2]; first compound 0.1265 µM): 0.299
- relative viability ([2]; first compound 0.4 µM): 0.31
- relative viability ([2]; first compound 1.265 µM): 0.293
- relative viability ([3]; first compound 0.04 µM): 0.505
- relative viability ([3]; first compound 0.1265 µM): 0.496
- relative viability ([3]; first compound 0.4 µM): 0.501
- relative viability ([3]; first compound 1.265 µM): 0.433
- relative viability ([4]; first compound 0.04 µM): 0.602
- relative viability ([4]; first compound 0.1265 µM): 0.632
- relative viability ([4]; first compound 0.4 µM): 0.518
- relative viability ([4]; first compound 1.265 µM): 0.604
- relative viability ([5]; first compound 0.04 µM): 0.43
- relative viability ([5]; first compound 0.1265 µM): 0.502
- relative viability ([5]; first compound 0.4 µM): 0.405
- relative viability ([5]; first compound 1.265 µM): 0.353
- relative viability ([6]; first compound 0.04 µM): 0.648
- relative viability ([6]; first compound 0.1265 µM): 0.698
- relative viability ([6]; first compound 0.4 µM): 0.591
- relative viability ([6]; first compound 1.265 µM): 0.38
- relative viability ([7]; first compound 0.04 µM): 0.214
- relative viability ([7]; first compound 0.1265 µM): 0.258
- relative viability ([7]; first compound 0.4 µM): 0.181
- relative viability ([7]; first compound 1.265 µM): 0.206
- relative viability ([8]; first compound 0.04 µM): 0.981
- relative viability ([8]; first compound 0.1265 µM): 1.09
- relative viability ([8]; first compound 0.4 µM): 1.07
- relative viability ([8]; first compound 1.265 µM): 0.973
- relative viability ([9]; first compound 0.04 µM): 0.277
- relative viability ([9]; first compound 0.1265 µM): 0.267
- relative viability ([9]; first compound 0.4 µM): 0.239
- relative viability ([9]; first compound 1.265 µM): 0.237
- relative viability ([10]; first compound 0.04 µM): 0.852
- relative viability ([10]; first compound 0.1265 µM): 1.1
- relative viability ([10]; first compound 0.4 µM): 0.792
- relative viability ([10]; first compound 1.265 µM): 0.797
- relative viability ([11]; first compound 0.04 µM): 0.752
- relative viability ([11]; first compound 0.1265 µM): 0.778
- relative viability ([11]; first compound 0.4 µM): 0.896
- relative viability ([11]; first compound 1.265 µM): 0.661
- relative viability ([12]; first compound 0.04 µM): 0.34
- relative viability ([12]; first compound 0.1265 µM): 0.377
- relative viability ([12]; first compound 0.4 µM): 0.325
- relative viability ([12]; first compound 1.265 µM): 0.289
- relative viability ([13]; first compound 0.04 µM): 0.333
- relative viability ([13]; first compound 0.1265 µM): 0.5
- relative viability ([13]; first compound 0.4 µM): 0.384
- relative viability ([13]; first compound 1.265 µM): 0.3
- relative viability ([14]; first compound 0.04 µM): 0.362
- relative viability ([14]; first compound 0.1265 µM): 0.282
- relative viability ([14]; first compound 0.4 µM): 0.252
- relative viability ([14]; first compound 1.265 µM): 0.274
- relative viability ([15]; first compound 0.04 µM): 0.596
- relative viability ([15]; first compound 0.1265 µM): 0.572
- relative viability ([15]; first compound 0.4 µM): 0.601
- relative viability ([15]; first compound 1.265 µM): 0.639
- relative viability ([16]; first compound 0.04 µM): 0.227
- relative viability ([16]; first compound 0.1265 µM): 0.254
- relative viability ([16]; first compound 0.4 µM): 0.216
- relative viability ([16]; first compound 1.265 µM): 0.193
- relative viability ([17]; first compound 0.04 µM): 0.599
- relative viability ([17]; first compound 0.1265 µM): 0.748
- relative viability ([17]; first compound 0.4 µM): 0.626
- relative viability ([17]; first compound 1.265 µM): 0.448
- relative viability ([18]; first compound 0.04 µM): 0.291
- relative viability ([18]; first compound 0.1265 µM): 0.374
- relative viability ([18]; first compound 0.4 µM): 0.358
- relative viability ([18]; first compound 1.265 µM): 0.291
- relative viability ([19]; first compound 0.04 µM): 0.143
- relative viability ([19]; first compound 0.1265 µM): 0.209
- relative viability ([19]; first compound 0.4 µM): 0.209
- relative viability ([19]; first compound 1.265 µM): 0.152
- relative viability ([20]; first compound 0.04 µM): 0.505
- relative viability ([20]; first compound 0.1265 µM): 0.813
- relative viability ([20]; first compound 0.4 µM): 0.489
- relative viability ([20]; first compound 1.265 µM): 0.463
- relative viability ([21]; first compound 0.04 µM): 0.836
- relative viability ([21]; first compound 0.1265 µM): 0.893
- relative viability ([21]; first compound 0.4 µM): 0.881
- relative viability ([21]; first compound 1.265 µM): 0.686
- relative viability ([22]; first compound 0.1265 µM): 0.516
- relative viability ([22]; first compound 0.4 µM): 0.485
- relative viability ([22]; first compound 1.265 µM): 0.406
- relative viability ([23]; first compound 0.04 µM): 0.406
- relative viability ([23]; first compound 0.1265 µM): 0.384
- relative viability ([23]; first compound 0.4 µM): 0.387
- relative viability ([23]; first compound 1.265 µM): 0.4
